Legend:
[1] = mn = molality of the nth substance listed, in mol/kg; details: 101 kPa, Liquid; for viscosity: Cone and plate viscometry; for electrical conductivity: Frequency=0 MHz, Direct current cell with electrodes
[2] = for viscosity / electrical conductivity: 101 kPa, Liquid; for viscosity: Cone and plate viscometry; for electrical conductivity: Frequency=0 MHz, Direct current cell with electrodes

CCCC[N+]1(C)CCCC1.O=S(=O)([N-]S(=O)(=O)C(F)(F)F)C(F)(F)F + [F][Ta]([F])([F])([F])[F]
[1], m2 = 0
Details	electrical conductivity [S/m]	viscosity [mPa·s]
293.15 K	0.25	102
303.15 K	–	67
312.15 K	–	47
312.17 K	–	47
313.15 K	0.47	–
321.22 K	–	36
323.15 K	0.63	–
330.29 K	–	28
333.15 K	0.8	–
339.37 K	–	22
343.15 K	1.01	–
348.44 K	–	17
353.15 K	1.21	–
357.52 K	–	14
367.49 K	–	11
373.15 K	1.74	–
377.46 K	–	10
386.53 K	–	8
393.15 K	2.3	–
394.73 K	–	7
403.15 K	–	6
413.15 K	2.92	–
433.15 K	3.61	–
453.15 K	4.33	–

CCCC[N+]1(C)CCCC1.O=S(=O)([N-]S(=O)(=O)C(F)(F)F)C(F)(F)F
[2]
Details	electrical conductivity [S/m]	viscosity [mPa·s]
293.15 K	0.25	102
303.15 K	–	67
312.15 K	–	47
312.17 K	–	47
313.15 K	0.47	–
321.22 K	–	36
323.15 K	0.63	–
330.29 K	–	28
333.15 K	0.8	–
339.37 K	–	22
343.15 K	1.01	–
348.44 K	–	17
353.15 K	1.21	–
357.52 K	–	14
367.49 K	–	11
373.15 K	1.74	–
377.46 K	–	10
386.53 K	–	8
393.15 K	2.3	–
394.73 K	–	7
403.15 K	–	6
413.15 K	2.92	–
433.15 K	3.61	–
453.15 K	4.33	–

Details	Normal melting temperature [°C]
[2], Crystal, DTA	-22

[F][Ta]([F])([F])([F])[F] [Tantalum fluoride] + CCCC[N+]1(C)CCCC1.O=S(=O)([N-]S(=O)(=O)C(F)(F)F)C(F)(F)F
[1]
Details	electrical conductivity, 293.15 K [S/m]	electrical conductivity, 373.15 K [S/m]	electrical conductivity, 413.15 K [S/m]	electrical conductivity, 453.15 K [S/m]	viscosity, 303.15 K [mPa·s]	viscosity, 312.17 K [mPa·s]	viscosity, 321.22 K [mPa·s]	viscosity, 339.37 K [mPa·s]	viscosity, 367.49 K [mPa·s]	viscosity, 403.15 K [mPa·s]
m1 = 0.08	0.24	1.73	2.94	4.23	71	51	38	23	12	7
m1 = 0.17	0.23	1.66	2.81	4.16	73	52	40	24	12	7
m1 = 0.35	0.23	1.65	2.78	4.13	77	56	41	25	13	7
m1 = 0.7	0.22	1.56	2.66	3.84	81	59	44	26	14	8
m1 = 1.41	0.22	1.37	2.27	3.44	87	62	47	28	15	8

Reference: the NIST ThermoML archive (doi:10.1016/j.fluid.2016.01.043)
